Laboratory results published in patent US4792550A, “13-aza-14-oxo-TXA2 analogues” (Ono Pharmaceutical Co., Ltd., priority 1984, dated 1988).
Where two headings read alike, the source gives them in different places.

Key:
[1] = system: contraction of artery induced by STA2; test: Inhibitory activity on contraction of artery (increase of blood pressure) induced by STA2 in guinea pig; format: in vivo; conditions: male guinea pig, 100 μg/kg i.v., blood pressure at carotid artery; for inhibition in vivo at 0.1 mg/kg: Cavia porcellus, iv, read-out: Inhibitory ratios on contraction of artery
Protocol: (ii) inhibitory percentages on contraction of artery induced by STA2 in guinea pigs.
(ii) Inhibitory activity of increasing of blood pressure
A glycine-sodium hydroxide buffer solution (pH 10) of tested compound was administered intravenously to a urethaneanaesthetized male guinea pig weighing 200-350 g, at a rate of 100 μg/kg animal body weight via carotid vein.
And a solution of STA2 in phosphate buffer (pH 7.4) was administered intravenously. Change of the blood pressure was measured at carotid artery and then inhibition ratio (%) was calculated.

[2] = system: platelet aggregation induced by STA2 in human blood; test: Inhibitory activity of platelet aggregation induced by STA2 in human blood; format: cell-based; conditions: method of Born, read-out: concentrations required 50% inhibition on platelet aggregation (IC50)
Protocol: (i) concentrations required 50% inhibition (IC50) on platelet aggregation using human blood induced by STA2 (9,11-epithio-15-hydroxy-11a-carbathromb-5Z,13E-dienoic acid), and
(i) Inhibitory activitv of platelet aggregation induced by STA2 in human blood
Whole blood of healthy human adult was collected with citric acid, and the mixture (20 ml) was centrifuged (180×g) for 10 min. The surpernatant obtained was diluted with sufficient platelet poor plasma to obtain plasma which contains 300,000 platelet cells per μl.
A solution of tested compound in ethanol (1 μl) was added to the obtained plasma (250 μl), and then a solution of STA2 in ethanol was added to the mixture. The measurement was carried out followed by the method of Born and then IC50 was calculated.

SMILES	IC50 ([2]; Homo sapiens, Platelet) [nM]	IC50 [2] [nM]	Inhibitory ratios on contraction of artery [1] [%]	inhibition in vivo at 0.1 mg/kg [1] [%]
CC(C)C(O)C(=O)N[C@H]1C[C@H]2C[C@@H]([C@@H]1C/C=C\CCCC(=O)O)C2(C)C (single isomer, unassigned) [1(kk)]		260	18.5	
CC1(C)[C@H]2C[C@H](NC(=O)CC3Cc4ccccc4C3)[C@@H](C/C=C\CCCC(=O)O)[C@@H]1C2 [1(cc)]	710			
CCC(C)CC(=O)N[C@H]1C[C@H]2C[C@@H]([C@@H]1C/C=C\CCCC(=O)O)C2(C)C (some centres unmarked) [1(dd)]	550			37.1
CC1(C)[C@H]2C[C@H](NC(=O)C3CCCC3)[C@@H](C/C=C\CCCC(=O)O)[C@@H]1C2 [1(o)]	560			34.2
CC1(C)[C@H]2C[C@H](NC(=O)CCCc3cccc(Cl)c3)[C@@H](C/C=C\CCCC(=O)O)[C@@H]1C2 [1(r)]	670			58.6
CC1(C)[C@H]2C[C@H](NC(=O)CC3CCCC3)[C@@H](C/C=C\CCCC(=O)O)[C@@H]1C2 [2(g)]	420			39
CC1(C)[C@H]2C[C@H](NC(=O)C(Cl)C3CCCC3)[C@@H](C/C=C\CCCC(=O)O)[C@@H]1C2 (some centres unmarked) [2(h)]	450			57.6
CCCCC(=O)N[C@H]1C[C@H]2C[C@@H]([C@@H]1C/C=C\CCCC(=O)O)C2(C)C [2(j)]	560			27.3
CC1(C)[C@H]2C[C@H](NC(=O)CCCc3ccccc3)[C@@H](C/C=C\CCCC(=O)O)[C@@H]1C2 [3(c)]	430			78.1
CC1(C)[C@H]2C[C@H](NC(=O)CCCCc3ccccc3)[C@@H](C/C=C\CCCC(=O)O)[C@@H]1C2 [3(g)]	630			60.5
CCCCCC(=O)N[C@H]1C[C@H]2C[C@@H]([C@@H]1C/C=C\CCCC(=O)O)C2(C)C [Example 6, 9α,11α-dimethylmethano-13-aza-14-oxo-20-nor-11a-carbathromb-5Z-enoic acid]	670			78.1

Further molecules by falling IC50 ([2]; Homo sapiens, Platelet), results first:

IC50 ([2]; Homo sapiens, Platelet) [nM]	IC50 [2] [nM]	SMILES	Inhibitory ratios on contraction of artery [1] [%]	inhibition in vivo at 0.1 mg/kg [1] [%]
380		CC(C)CC(=O)N[C@H]1C[C@H]2C[C@@H]([C@@H]1C/C=C\CCCC(=O)O)C2(C)C [1(ee)]		39
320		CCCCCC(O)C(=O)N[C@H]1C[C@H]2C[C@@H]([C@@H]1C/C=C\CCCC(=O)O)C2(C)C (some centres unmarked) [1(c)]		71.2
300		CC(C)C(O)C(=O)N[C@H]1C[C@H]2C[C@@H]([C@@H]1C/C=C\CCCC(=O)O)C2(C)C (single isomer, unassigned) [1(jj)]	46.8	
300		CC(C)CCC(=O)N[C@H]1C[C@H]2C[C@@H]([C@@H]1C/C=C\CCCC(=O)O)C2(C)C [1(hh)]		42
290		CC1(C)[C@H]2C[C@H](NC(=O)CCSc3ccccc3)[C@@H](C/C=C\CCCC(=O)O)[C@@H]1C2 [1(aa)]		66.4
280		CC1(C)[C@H]2C[C@H](NC(=O)C(O)CCc3ccccc3)[C@@H](C/C=C\CCCC(=O)O)[C@@H]1C2 (some centres unmarked) [1(b)]		75.2
190		CC(CC(=O)N[C@H]1C[C@H]2C[C@@H]([C@@H]1C/C=C\CCCC(=O)O)C2(C)C)Cc1ccccc1 (some centres unmarked) [1(w)]		60.5
